# From patent US20220323437A1, “METHODS FOR TREATING PULMONARY ARTERIAL HYPERTENSION” (ACTELION PHARMACEUTICALS LTD, priority 2019, published 2022)
# Several values for one entry are separate records, joined by “and”; a condition that tells them apart may be missing. Equal entries are not always repeated.
# Assay: Adverse events during switch from oral to i.v. selexipag and back in subjects with stable PAH (Phase 3 study)
# Format: in vivo, human
# Experimental: This was a prospective, multicenter, open-label, single-sequence, cross-over, Phase 3 study. Based on the dose of selexipag received at study entry, subjects were allocated to one of the following groups, selexipag 200-1000 μg b.i.d. or selexipag 1200-1600 μg b.i.d. See, FIG. 1. The study comprised the following periods:
# (ii) Treatment and observation period: The treatment and observation period included the following consecutive periods: • Period 1 included oral selexipag pre-treatment period for 1 day, in-hospital. This period started with intake of the morning dose of oral selexipag on Day 1 at Visit 2 and ended the following day, before initiation of the first infusion of i.v. selexipag. • Period 2 included i.v. selexipag treatment period for 36 hours [3 infusions], in-hospital. This period started in the morning of Day 2 at Visit 2 with the start of the first infusion of i.v. selexipag and ended in the evening of Day 3 at Visit 2 before the evening administration of oral selexipag. Administration of oral selexipag was interrupted during the i.v. selexipag treatment period. • Period 3 included oral selexipag post-treatment period for 7 to 11 day. This period started in the evening of Day 3 at Visit 2 with the administration of oral selexipag and ended 7-11 days later, at Visit 3.
# The endpoints analyzed for Period 1, Period 2, and Period 3 and follow-up period combined included discontinuations due to prostacyclin-associated AEs, adverse events (AEs) and serious adverse events (SAEs), prostacyclin-associated AEs, AEs related to injection site reactions, and PAH-related AEs.
# The endpoints analyzed for (i) Period 1, Period 2, and Period 3 and follow-up period combined (ii) Period 1 and Period 2 combined, and (iii) Period 2 and Period 3 combined included discontinuations due to prostacyclin-associated AEs, discontinuations due to any AEs, AEs and SAEs, prostacyclin-associated AEs, PAH-related AEs, change from baseline in vital signs (systolic blood pressure [SBP], diastolic blood pressure [DBP], and pulse rate) and body weight, ECG abnormalities, marked laboratory abnormalities, and change from baseline in WHO FC.
# The statistical analysis was mainly descriptive, without formal hypothesis testing. Exact Pearson-Clopper CIs for the incidence of AEs were computed.
# [1] = Overall (Periods 1, 2, and 3, and safety-follow-up combined), 20 subjects
# [2] = Overall (Periods 1, 2, and 3 with safety-follow-up combined)
# [3] = Period 1 (oral selexipag), total, N = 20
# [4] = Period 1 (oral selexipag, 24 h), high dose cohort (1200-1600 μg), N = 12
# [5] = Period 1 (oral selexipag, 24 h), high dose cohort (1200-1600 μg), N = 12, listed as Uptravi
# [6] = Period 1 (oral selexipag, 24 h), low dose cohort (200-1000 μg), N = 8
# [7] = Period 1 (oral selexipag, 24 h), total, N = 20
# [8] = Period 2 (i.v. selexipag, 36 h), high dose cohort (1200-1600 μg), N = 12
# [9] = Period 2 (i.v. selexipag, 36 h), low dose cohort (200-1000 μg), N = 8
# [10] = Period 2 (i.v. selexipag, 36 h), total, N = 20
# [11] = Period 2 (intravenous selexipag treatment), high dose cohort (1200-1600 μg), N = 12
structure (smiles),measurement,setting,value
"CC(C)N(CCCCOCC(=O)NS(C)(=O)=O)c1cnc(-c2ccccc2)c(-c2ccccc2)n1 [selexipag, 2-{4-[(5,6-diphenylpyrazin-2-yl)(propan-2-yl)amino]butoxy}-N-(methanesulfonyl)acetamide]",most frequently reported AE preferred term: headache,[1],4 subjects
same,subjects with at least 1 AE during the study,[1],15 subjects
same,subjects with mild intensity AEs,[2],8 subjects
same,subjects with moderate intensity AEs,[2],5 subjects
same,subjects with severe intensity AEs,[2],1 subject
same,Subjects with at least one prostacyclin-associated AE,"Period 1 (oral selexipag), high dose cohort (1200-1600 μg), N = 12",0 n (%)
same,Subjects with at least one prostacyclin-associated AE,"Period 1 (oral selexipag), low dose cohort (200-1000 μg), N = 8",0 n (%)
same,Deaths,[3],0 n (%)
same,Discontinuations due to prostacyclin-associated AEs,[3],0 n (%)
same,Number of subjects with at least one Prostacyclin-associated AEs,[3],0 n (%)
same,Number of subjects with at least one Serious adverse events (SAEs),[3],0 n (%)
same,SAE incidence: Blindness unilateral,[3],0 n (%)
same,SAE incidence: Rhegmatogenous retinal detachment,[3],0 n (%)
same,SAE incidence: Right ventricular failure,[3],0 n (%)
same,AE incidence: Sleep disorder,[4],1 n (%)
same,AE incidence: Swelling face,[4],0 n (%)
same,Subjects with at least one AE,[4],1 n (%)
same,AE incidence: Sleep disorder,[5],1 (8.3) n (%)
same,Subjects with at least one AE,[5],1 (8.3) n (%)
same,AE incidence: Sleep disorder,[6],0 n (%)
same,AE incidence: Swelling face,[6],1 (12.5) n (%)
same,Subjects with at least one AE,[6],1 (12.5) n (%)
same,AE incidence: Sleep disorder,[7],1 n (%)
same,AE incidence: Swelling face,[7],1 n (%)
same,Subjects with at least one AE,[7],2 n (%) and 2 (10.0) n (%)
same,Subjects with at least one AE,"Period 1 (oral selexipag, 24 h), total, N = 20, listed as Uptravi",2 n (%)
same,prematurely discontinued study treatment,Period 2 (3 i.v. infusions of selexipag),No subject
same,subjects with clinically significant injection site reactions as determined by the investigator,Period 2 (i.v. selexipag),two
same,AE incidence: Diarrhoea,[8],1 n (%)
same,AE incidence: Dysgeusia,[8],0 n (%)
same,AE incidence: Epistaxis,[8],0 n (%)
same,AE incidence: Flatulence,[8],1 n (%)
same,AE incidence: Flushing,[8],1 n (%)
same,AE incidence: Headache,[8],3 n (%)
same,AE incidence: Incorrect drug administration rate,[8],0 n (%)
same,AE incidence: Infusion site erythema,[8],2 n (%)
same,AE incidence: Infusion site swelling,[8],1 n (%)
same,AE incidence: Lymphadenopathy,[8],0 n (%)
same,AE incidence: Myalgia,[8],1 n (%)
same,AE incidence: Nasal congestion,[8],1 n (%)
same,AE incidence: Nausea,[8],1 n (%)
same,AE incidence: Pain in jaw,[8],1 n (%)
same,AE incidence: Tachycardia,[8],0 n (%)
same,AE incidence: Tension headache,[8],1 n (%)
same,AE incidence: Vascular access complication,[8],1 n (%)
same,AE incidence: Vomiting,[8],1 n (%)
same,Subjects with at least one AE,[8],6 n (%)
same,AE incidence: Diarrhoea,[9],0 n (%)
same,AE incidence: Dysgeusia,[9],1 (12.5) n (%)
same,AE incidence: Epistaxis,[9],1 (12.5) n (%)
same,AE incidence: Flatulence,[9],0 n (%)
same,AE incidence: Flushing,[9],0 n (%)
same,AE incidence: Headache,[9],1 (12.5) n (%)
same,AE incidence: Incorrect drug administration rate,[9],1 (12.5) n (%)
same,AE incidence: Infusion site erythema,[9],0 n (%)
same,AE incidence: Infusion site swelling,[9],0 n (%)
same,AE incidence: Lymphadenopathy,[9],1 (12.5) n (%)
same,AE incidence: Myalgia,[9],0 n (%)
same,AE incidence: Nasal congestion,[9],0 n (%)
same,AE incidence: Nausea,[9],0 n (%)
same,AE incidence: Pain in jaw,[9],0 n (%)
same,AE incidence: Tachycardia,[9],1 (12.5) n (%)
same,AE incidence: Tension headache,[9],0 n (%)
same,AE incidence: Vascular access complication,[9],0 n (%)
same,AE incidence: Vomiting,[9],0 n (%)
same,Subjects with at least one AE,[9],4 (50.0) n (%)
same,AE incidence: Diarrhoea,[10],1 n (%)
same,AE incidence: Dysgeusia,[10],1 n (%)
same,AE incidence: Epistaxis,[10],1 n (%)
same,AE incidence: Flatulence,[10],1 n (%)
same,AE incidence: Flushing,[10],1 n (%)
same,AE incidence: Headache,[10],4 n (%)
same,AE incidence: Incorrect drug administration rate,[10],1 n (%)
same,AE incidence: Infusion site erythema,[10],2 n (%)
same,AE incidence: Infusion site swelling,[10],1 n (%)
same,AE incidence: Lymphadenopathy,[10],1 n (%)
same,AE incidence: Myalgia,[10],1 n (%)
same,AE incidence: Nasal congestion,[10],1 n (%)
same,AE incidence: Nausea,[10],1 n (%)
same,AE incidence: Pain in jaw,[10],1 n (%)
same,AE incidence: Tachycardia,[10],1 n (%)
same,AE incidence: Tension headache,[10],1 n (%)
same,AE incidence: Vascular access complication,[10],1 n (%)
same,AE incidence: Vomiting,[10],1 n (%)
same,Subjects with at least one AE,[10],10 n (%)
same,Prostacyclin-associated AE incidence: Diarrhoea,[11],1 n (%)
same,Prostacyclin-associated AE incidence: Flushing,[11],1 n (%)
same,Prostacyclin-associated AE incidence: Headache,[11],3 n (%)
same,Prostacyclin-associated AE incidence: Myalgia,[11],1 n (%)
same,Prostacyclin-associated AE incidence: Nausea,[11],1 n (%)
same,Prostacyclin-associated AE incidence: Pain in jaw,[11],1 n (%)
same,Prostacyclin-associated AE incidence: Tension headache,[11],1 n (%)
